Reference: patent US10308916B2, “Omega-transaminase mutants with activity improvements toward ketones and methods for producing optically pure amines” (Industry-Academic Cooperation Foundation, Yonsei University, priority 2015, dated 2019)
Where two headings read alike, the source gives them in different places.

Legend:
OATA WT [1] = assay type: biochemical, Ochrobactrum anthropi; conditions: pH 7
OATA WT [2] = assay type: biochemical
OATA WT [3] = assay type: biochemical; remark: listed apart in the source
OATA WT [4] = assay type: biochemical, Ochrobactrum anthropi
OATA = OATA (Brucella anthropi, UniProt A6WVC6); assay type: biochemical
OATA WT [5] = assay type: biochemical, Ochrobactrum anthropi; remark: listed apart in the source
OATA WT [6] = assay type: biochemical; remark: listed apart in the source
ARTAmut = conditions: cited from earlier work
[7] = system: (S)-selective omega-transaminase from Ochrobactrum anthropi; conditions: cited from earlier work
OATA W58A [8] = assay type: biochemical; conditions: pH 7
OATA W58V = assay type: biochemical; conditions: pH 7
OATA W58I = assay type: biochemical; conditions: pH 7
OATA W58L = assay type: biochemical; conditions: pH 7
OATA W58M = assay type: biochemical; conditions: pH 7
OATA L57A = assay type: biochemical
OATA W58A [9] = assay type: biochemical
OATA L57A/W58A = assay type: biochemical
OATA L57A/W58A/V154A = assay type: biochemical
OATA WT [10] = assay type: biochemical, Ochrobactrum anthropi; remark: listed apart in the source
CC(=O)C(=O)O = assay: purified protein, by the assay type

1-acetonaphthone [Ketone 1i]
Relative activity to acetophenone, OATA WT (OATA WT [1]): 43%
Conversion (%) OATA (OATA WT [2]): 13%

CC(C)C(N)c1ccccc1 (racemic) [2-Methyl-1-phenylpropan-1-amine]
Relative reactivity, OATA (OATA WT [3]): 0.1%

CC(N)CO (racemic) [DL-Alaninol]
Relative reactivity, OATA (OATA WT [3]): 16%

CC(C)C(C)N (stereo not shown) [1,2-Dimethylpropylamine]
Relative reactivity, OATA (OATA WT [3]): 18%

CC(C)CC(C)N (stereo not shown) [1,3-Dimethylbutylamine]
Relative reactivity, OATA (OATA WT [3]): 3%

COCC(C)N (stereo not shown) [1-Methoxy-2-propylamine]
Relative reactivity, OATA (OATA WT [3]): 29%

CC(N)CCc1ccccc1 (stereo not shown) [1-Methyl-3-phenylpropylamine]
Relative reactivity, OATA (OATA WT [3]): 73%

CC(C)(C)C(N)c1ccccc1 (stereo not shown) [2,2-Dimethyl-1-phenylpropan-1-amine]
Relative reactivity, OATA (OATA WT [3]): 0.1%

CCCC(C)N (stereo not shown) [2-Aminopentane]
Relative reactivity, OATA (OATA WT [3]): 13%

CCC(=O)C(=O)O [2-oxobutanoic acid]
Relative activity, OATA WT (OATA WT [4]): 17.2%

CCCCC(=O)C(=O)O [2-oxohexanoic acid]
Relative activity, OATA WT (OATA WT [4]): 1%

CCCCCCC(=O)C(=O)O [2-oxooctanoic acid]
Relative activity, OATA WT (OATA WT [4]): 1%

CCCC(=O)C(=O)O [2-oxopentanoic acid]
Relative activity, OATA WT (OATA WT [4]): 0.6%

CC(C)C(=O)C(=O)O [3-methyl-2-oxobutyric acid]
Relative activity, OATA WT (OATA WT [4]): did not react

CC(N)c1ccc(F)cc1 (stereo not drawn) [4-Fluoro-α-methylbenzylamine]
Relative reactivity, OATA (OATA WT [3]): 31%

C[C@H](N)c1cccc2ccccc12 [(S)-1-(1-naphthyl)ethylamine]
Relative reactivity, OATA (OATA WT [3]): 0.5%

C[C@H](N)C1CC1 [(S)-1-Cyclopropylethylamine]
Relative reactivity, OATA (OATA WT [3]): 29%

N[C@H]1CCc2ccccc21 [(S)-1-aminoindan]
Relative reactivity, OATA (OATA WT [3]): 9%

CCCC[C@H](C)N [(S)-2-aminohexane]
Relative reactivity, OATA (OATA WT [3]): 31%

CCCCCC[C@H](C)N [(S)-2-aminooctane]
Relative reactivity, OATA (OATA WT [3]): 146%

COc1ccc([C@H](C)N)cc1 [(S)-4-methoxy-α-methylbenzylamine]
Relative reactivity, OATA (OATA WT [3]): 116%

Cc1ccc([C@H](C)N)cc1 [(S)-α,4-dimethylbenzylamine]
Relative reactivity, OATA (OATA WT [3]): 86%

CC[C@H](N)c1ccccc1 [(S)-α-ethylbenzylamine]
Relative reactivity, OATA (OATA WT [3]): 2%

C[C@H](N)c1ccccc1 [(S)-α-methylbenzylamine]
kcat, OATA (OATA): 24000, 20000 ×10^−3 s^−1
Relative reactivity, OATA (OATA WT [3]): 100%
Relative activity, OATA WT (OATA WT [5]): 100%

CCC[C@H](N)c1ccccc1 [(S)-α-propylbenzylamine]
Relative reactivity, OATA (OATA WT [3]): 0.2%

NCc1ccccc1 [Benzylamine]
Relative reactivity, OATA (OATA WT [3]): 274%

CC(C)N [Isopropylamine]
kcat, OATA (OATA): 9700, 9300 ×10^−3 s^−1
Relative reactivity, OATA (OATA WT [3]): 20%

CC(=O)c1ccccc1 [Ketone 1a, acetophenone]
Relative activity to acetophenone, OATA WT (OATA WT [1]): 100%
Relative activity, OATA WT (OATA WT [6]): 100%
kcat, OATA (OATA): 9.7, 540 ×10^−3 s^−1
Conversion (ARTAmut): 19%
activity relative to pyruvate [7]: 0.03%

CCC(=O)c1ccccc1 [Ketone 1b, propiophenone]
Relative activity to acetophenone, OATA WT (OATA WT [1]): 1%
Relative activity to acetophenone, OATA W58A (OATA W58A [8]): 14%
Relative activity to acetophenone, OATA W58V (OATA W58V): 16%
Relative activity to acetophenone, OATA W58I (OATA W58I): 14%
Relative activity to acetophenone, OATA W58L (OATA W58L): 2%
Relative activity to acetophenone, OATA W58M (OATA W58M): 17%
Relative activity, OATA WT (OATA WT [6]): 17%
Relative activity, OATA L57A (OATA L57A): 49%
Relative activity, OATA W58A (OATA W58A [9]): 259%
Relative activity, OATA L57A/W58A (OATA L57A/W58A): 387%
Relative activity, OATA L57A/W58A/V154A (OATA L57A/W58A/V154A): 821%

CCCC(=O)c1ccccc1 [Ketone 1c, butyrophenone]
Relative activity to acetophenone, OATA WT (OATA WT [1]): 0%
Relative activity, OATA WT (OATA WT [6]): 2%

CC(=O)c1ccc(C)cc1 [Ketone 1d, 4-methylacetophenone]
Relative activity to acetophenone, OATA WT (OATA WT [1]): 51%
Conversion (%) OATA (OATA WT [2]): 7%

COc1ccc(C(C)=O)cc1 [Ketone 1e, 4-methoxyacetophenone]
Relative activity to acetophenone, OATA WT (OATA WT [1]): 29%

CC(=O)CCc1ccccc1 [Ketone 1f, benzylacetone]
Relative activity to acetophenone, OATA WT (OATA WT [1]): 536%
Conversion (%) OATA (OATA WT [2]): 26%

O=C1CCc2ccccc21 [Ketone 1g]
Reaction rate OATA (OATA WT [10]): did not react

O=C1CCCc2ccccc21 [Ketone 1h]
Reaction rate OATA (OATA WT [10]): did not react

CCCC(C)=O [Ketone 1j, 2-pentanone]
Relative activity to acetophenone, OATA WT (OATA WT [1]): 83%

CCCCC(C)=O [Ketone 1k, 2-hexanone]
Relative activity to acetophenone, OATA WT (OATA WT [1]): 151%
Conversion (%) OATA (OATA WT [2]): 14%

CCCCCCC(C)=O [Ketone 1l, 2-octanone]
Relative activity to acetophenone, OATA WT (OATA WT [1]): 208%
Conversion (%) OATA (OATA WT [2]): 30%

CC(=O)C(C)C [Ketone 1m, 3-methyl 2-butanone]
Relative activity to acetophenone, OATA WT (OATA WT [1]): 161%

CC(=O)CC(C)C [Ketone 1n, 4-methyl-2-pentanone]
Relative activity to acetophenone, OATA WT (OATA WT [1]): 21%

CCC(C)=O [Ketone 2-butanone, 2-butanone]
Relative activity to acetophenone, OATA WT (OATA WT [1]): 317%

Cc1cccc(C)c1OCC(C)N (stereo not shown) [Mexiletine, reference compound]
Relative reactivity, OATA (OATA WT [3]): 27%

CC(=O)CO [hydroxyacetone]
Relative activity to acetophenone, OATA WT (OATA WT [1]): 364%

COCC(C)=O [methoxyacetone]
Relative activity to acetophenone, OATA WT (OATA WT [1]): 571%

CC(=O)C(=O)O [pyruvate, pyruvic acid]
Relative activity, OATA WT (OATA WT [4]): 100%

(Brucella anthropi ATCC 49188)
Km (CC(=O)C(=O)O): 0.12, 2.1 mM
kcat (CC(=O)C(=O)O): 2600, 19000
kcat/Km (CC(=O)C(=O)O): 22000, 9000

(S)-sec-butylamine
Relative reactivity, OATA (OATA WT [3]): 29%

cyclpropyl methyl ketone [Ketone 1o]
Relative activity to acetophenone, OATA WT (OATA WT [1]): 17%
